Among the data in PubChem BioAssay (NCI) are TGI values, retold here.

Holding throughout (experiment): growth of human tumour cells (NCI), 48 h
Assay [1] deals with BT-549 breast.
The test system of assay [2] is LOX IMVI melanoma.
The subject of assay [3] is MDA-MB-231 breast.
Assay [4] deals with MDA-MB-435.
The test system of assay [5] is SF-295 CNS.
In assay [6] the test system is SF-539 CNS.
The subject of assay [7] is SN12C renal.
Assay [8] relates to TK-10 renal.
For assay [9], the system named is UACC-257 melanoma.
Assay [10] relates to UO-31 renal.
The test system of assay [11] is RXF 393 renal.

Each structure is given as a SMILES string.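 Compound exposure: 48 hours, 5 concentrations, 96-well plates. TGI: total growth inhibition.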

In the case of `NC(=S)N/N=C\c1nccc2ccccc12`, the TGI was 13.9 µM in assay [1]; 11.8 µM in assay [2]; 35.7 µM in assay [3]; above 100 µM in [4]; 0.781 µM in assay [5]; 0.455 µM in assay [6]. The TGI in [7] was 0.779 µM; in [8], 39.8 µM; in assay [9] it was above 58.6 µM; in assay [10], 3.63 µM.
Take `O=C1C(c2c(O)[nH]c3ccc(Br)cc23)=Nc2ccccc21`: the TGI in assay [1] came to 41 µM; in assay [2], 25.8 µM; in [3], 37.2 µM; in assay [4] it was 40.1 µM; in assay [11], 6.47 µM; in assay [5], 51 µM. Besides, the TGI was above 100 µM in assay [7], 27.8 µM in [8], 57.3 µM in assay [9] and 12.3 µM in assay [10].
`Cc1ccccc1S(=O)(=O)Nn1cnc2ccc(S(=O)(=O)Nc3ccc(Cl)cc3)cc2c1=O`: the TGI in assay [1], in assay [2], in assay [3], in assay [4], in [5] and in assay [6] was above 100 µM throughout. Besides, the TGI in assay [7], in assay [8], in [9] and in assay [10] was above 100 µM each time.
With `Cc1cn(CC2=NCC(C)N2)c(=O)[nH]c1=O` (stereo unspecified), the TGI in assay [1], in assay [2], in assay [3], in assay [11], in assay [5] and in assay [7] was above 100 µM each time. The TGI in assay [8], in assay [9] and in assay [10] was above 100 µM each time.
Consider `O=C1CSC(c2cccc([N+](=O)[O-])c2)N1c1ccc(-n2c(-c3ccccc3)nc3ccccc3c2=O)cc1` (stereo unspecified), for which the TGI in assay [1], in [2], in [3], in assay [4], in [5] and in [6] was above 100 µM throughout. Also, the TGI in assay [7] is above 100 µM; in [8], above 100 µM; in assay [9], above 100 µM; in [10], 65.6 µM.
For `CC(C)(C)OC(=O)N1C(c2cccnc2)=CC[C@H]2C3CC=C(c4cccnc4)[C@@]3(C)CC[C@@H]21` (stereo partly specified), the TGI in assay [1] came to 16.3 µM; in assay [2], 8.41 µM; in [4], 5.7 µM; in assay [11], 14.6 µM; in assay [5], 11.1 µM; in assay [6] it was 14.8 µM. Besides, the TGI in assay [7] was determined as 13 µM; in [8], 19.7 µM; in assay [9], 10.6 µM; in assay [10] it was 17.3 µM.
`Cc1cc(S(=O)(=O)Nc2nc3ccccc3c(=O)n2N)c(S)cc1Cl`: the TGI in [1], in [2], in assay [3], in assay [4], in assay [5] and in assay [6] was above 100 µM throughout. Besides, the TGI in assay [7], in assay [8] and in assay [9] was above 100 µM each time.
With `CCOC(=O)c1ccc(NCC#CCN2CCCCC2)cc1`, the TGI in [1], in assay [2], in assay [3], in assay [4], in assay [11] and in [6] was above 100 µM in each case. Moreover, the TGI in [7] and in [10] was above 100 µM each time.
For the molecule `Cc1ccc2c(c1)-c1nc(N)c(C#N)c(-c3ccccc3)c1CCS2(=O)=O`, the TGI in assay [1] is above 100 µM; in assay [2] it was above 100 µM; in assay [3], above 100 µM; in assay [4], above 100 µM; in assay [7] it was above 100 µM; in assay [8], 61 µM. The TGI in assay [9] and in [10] was above 100 µM throughout.
Turning to `NC(N)=Nc1ccc(CC(N)C(=O)O)cc1` (stereo unspecified), the TGI in assay [1], in [2], in assay [3], in assay [4], in assay [11] and in assay [5] was above 12.5 µM each time. Further, the TGI in assay [7], in [8], in assay [9] and in assay [10] was above 12.5 µM in each case.
For the molecule `COc1ccc2c(c1)CCc1c-2n(CCN2CCCCC2)c2ccc(OC)cc12`, the TGI in assay [1], in assay [2], in assay [3], in [4], in assay [5] and in [7] was above 100 µM each time. Moreover, the TGI in assay [8], in [9] and in assay [10] was above 100 µM throughout.
Take `CC(=O)O[C@H]1[C@H](OC(=O)CC(C)(O)CC(=O)O)C[C@]2(C)C3=C(CCC2C1(C)C)[C@]1(C)CC[C@H]([C@H]2CC[C@H](C(C)(C)O)OC2O)[C@@]1(C)[C@@H](O)C3` (stereo partly specified): the TGI was 29 µM in [1]; 35.9 µM in assay [2]; 32.4 µM in [3]; 35.1 µM in [4]; 33.9 µM in assay [5]; 32.1 µM in assay [7]. Further, the TGI in assay [8] turned out to be 63.4 µM; in [9], 35.4 µM; in assay [10], 25.8 µM.
Consider `CC(=O)C1CC[C@@H]2[C@H](CC[C@]3(C)[C@@H](O)CC[C@@H]23)[C@H]1C(=O)O` (stereo partly specified), for which the TGI in assay [1], in assay [3], in assay [4], in assay [11], in [5] and in assay [6] was above 100 µM throughout. Moreover, the TGI in assay [8], in assay [9] and in assay [10] was above 100 µM throughout.
